These results are taken from patent US7662767B2, “Polynucleotide intercalator interceptors and inhibitors” (Materials Evolution and Development USA, Inc., priority 2000, dated 2010).

Like-named read-outs stand apart in the source and are kept apart here.

Experiment [1] in a line: Absorbance binding spectra of doxorubicin titrated with caffeine or chlorophyllin. The settings on record: 10 μM doxorubicin.
For experiment [2] the following is noted: AO-CAF, cited from earlier work.
Experiment [3] is described as follows: Acridine orange self-association (AO-AO dimer), absorbance. It is filed as binding. The method, then:
Association constants were calculated using a modification of an equation described by Zaini et al. (1999) to determine equilibrium constants for weakly bound complexes by absorbance spectrophotometry. By definition K=Xd/(Xm* Xm), where K is the binding constant Kassoc, Xd is the concentration of the AO dimer and Xm is the concentration of the AO monomer. Conservation of mass gives Xt=Xm+2*Xd, where Xt is the total concentration of AO in solution. Rearranging the conservation of mass equation gives Xm=Xt−2*Xd, and substituting into the equation for Kassoc and rearranging gives Equation 4: Kassoc(Xt*Xt−4*Xt*Xd+4*Xd*Xd)−Xd=0 EQUATION 4:
Rearranging gives: Xd*Xd−(Xt+1/(4*.Kassoc)*Xd+Xt*Xt/4=0 EQUATION5:
Applying the quadratic formula (X=[−B±SQRT(B^2−4AC]/2A) to Equation 3-5 and taking a physically reasonable root gives Equation 3-6: Xd=[Xt+1/(4*K)−SQRT(Xt/(2*K)+1/[…])]/2 EQUATION 6:
Where SQRT ( ) indicates taking the square root of the content of the parentheses. The fluorescence values at λem 530 nm (F530) is a function of Xt and F530=Xd*ε, where “ε” is the fluorescence yield of the dimer. The equation was solved by non-linear least squares using Prism™ software and binding constants determined. […] Fluorescence values (fi) are reported as raw data normalized to scale and not adjusted by a dilution factor following aliquot additions. Absorbance data taken at 468 nm was also used to calculate the Kassoc for the AO-AO dimer using Equation 6.
In the example shown in FIG. 3-1A, absorbance was scanned between 400 nm and 550 nm over a range of AO concentrations from 2.5 μM to 20 μM in a 5 mM solution of HEPES buffer at pH 7.0. […] Note that the absorbance at 492 nm (A492) is indicative of the concentration of the AO monomer, whereas the absorbance at 468 nm (A468) is indicative of the concentration of the AO-AO dimer (Kapuscinski and Kimmel, 1993). […]
The absorbance was scanned between 410 nm and 540 nm over a range of AO concentrations from 10 μM-45 μM in a 5 mM solution of […] buffer at pH 7.0 in the presence of 150 mM of NaCl. […]

Experiment [4] deals with chicken erythrocyte nuclear chromatin. Put plainly: Acridine orange staining of chicken erythrocyte nuclear chromatin, fluorescence microscopy. Type of experiment: binding. The method, then: Chicken erythrocytes were chosen as one implementation of this invention. These nucleated cells have mature erythrocytes with no RNA. Blood was taken from a mature chicken. The blood was drawn from a wing vein into 50 ml glass heparin containing tubes to prevent clotting. This blood was used to make smears on microscope slides. These blood smeared slides were allowed to dry at room temperature and were stored in microscope boxes.
Solutions of AO were prepared at 5 mM and 10 μM concentrations in distilled water. Microscope slides smeared with chicken erythrocytes were stained by placing the slide into a glass slide holder containing 50 ml of AO solution under static conditions from 2 min to 30 min, followed by three 10 second rinses in distilled water before drying at room temperature. […] Processed slides were stored in the dark then read and photomicrographs taken (Zeiss Model 63 Microscope, 1600 ASA Kodak film) soon after removal from the dark to avoid photobleaching.
(§1) In the example shown in Table 4-1, the chicken erythrocytes were smeared and dried on a microscope slide prior to exposure to two different concentrations of AO (10 μM and 5 mM), rinsed with distilled water, and allowed to dry. Erythrocytes were examined with fluorescence microscopy and the color of the nuclei recorded. […]

The test system of experiment [5] is apChromatin (depurinated chicken erythrocyte nuclear chromatin). Put plainly: Acridine orange staining after acid hydrolysis of dsDNA to apurinic acid, fluorescence microscopy. Type of experiment: binding. The method, then:
Depurination of dsDNA within the nuclear chromatin of chicken erythrocytes was accomplished by using a modification of the Feulgen method (Feulgen and Rossenbeck, 1924). Specifically, the nucleated chicken erythrocyte slide preparations were rinsed in a 1 N solution of HCl at room temperature for 60 seconds. This was followed by placement of the slide in a pre-heated (55° C.) solution of 1 N HCl for 10 minutes under static conditions followed by several rinses in distilled water at room temperature. Slides were allowed to dry at room temperature then stained with AO at two different concentrations, one at 5 mM and the other at 10 μM for 15 min and 2 min, respectively. The depurination of DNA was expected to remove the site on the DNA polymer where AO intercalation can occur.
Solutions of AO were prepared at 5 mM and 10 μM concentrations in distilled water. […] Processed slides were stored in the dark then read and photomicrographs taken (Zeiss Model 63 Microscope, 1600 ASA Kodak film) soon after removal from the dark to avoid photobleaching.
as §1

Take `Cn1c(=O)c2c(ncn2C)n(C)c1=O` [1,3,7-trimethyl xanthine (caffeine), 1,3,7-trimethyl xanthine]: the “binding to doxorubicin” value in experiment [1] was “binds with doxorubicin”. The “K ± S.D.” value in experiment [2] (Absorbance plus NaCl 150 mM, AO [20 μM], CAF [1-2000 μM], Kapuscinski & Kimmel, 1993) is 169 ± 9 M⁻¹; in experiment [2] (Absorbance, AO [10 μM], CAF [1-5000 μM], Larsen et al., 1996), 258 ± 5 M⁻¹; in experiment [2] (Absorbance, AO [20 μM], CAF [1-2000 μM], Kapuscinski & Kimmel, 1993), 258 ± 7 M⁻¹.
Take `CN(C)c1ccc2cc3ccc(N(C)C)cc3nc2c1.Cl` [AO, 3,6-bis[dimethylamino]acridine hydrochloride]: the “K ± S.D.” value in experiment [3] (Absorbance plus NaCl, AO [10-45 μM]) is 47,510 ± 2,420 M^−1; in experiment [3] (Absorbance, AO [2.5-20 μM]), 46,840 ± 5,967 M^−1; in experiment [3] (Absorbance, AO [10-80 μM]), 49,530 ± 2,953 M^−1. The “Fluorescent Color” value in experiment [4] (AO 10 μM) is reported as “Green”; in experiment [4] (AO 5 mM), “Red”; in experiment [5] (AO 10 μM), “No Color”; in experiment [5] (AO 5 mM) it was “Red”.
